Test results from US10954300B2, “Use of pentoxifylline with immune checkpoint-blockade therapies for the treatment of melanoma” (THE TRUSTEES OF COLUMBIA UNIVERSITY IN THE CITY OF NEW YORK, priority 2015, dated 2021).

Tests used:
c-Rel [1] = biological target: T1, c-Rel (Mus musculus, UniProt P15307); test: Western blot on PTXF-treated Treg cells; assay type: cell-based, mice; conditions: Treg cells stimulated with anti-CD3/CD28 and mIL-2, 500 μg/mL PTXF
T1 construct: CD4+GFP+ Treg cells were sorted form Foxp3eGFP spleens; endogenous in cells; host or cells: primary splenic CD4+Foxp3+ Treg cells from reporter mice
T1 sequence (P15307 whole entry): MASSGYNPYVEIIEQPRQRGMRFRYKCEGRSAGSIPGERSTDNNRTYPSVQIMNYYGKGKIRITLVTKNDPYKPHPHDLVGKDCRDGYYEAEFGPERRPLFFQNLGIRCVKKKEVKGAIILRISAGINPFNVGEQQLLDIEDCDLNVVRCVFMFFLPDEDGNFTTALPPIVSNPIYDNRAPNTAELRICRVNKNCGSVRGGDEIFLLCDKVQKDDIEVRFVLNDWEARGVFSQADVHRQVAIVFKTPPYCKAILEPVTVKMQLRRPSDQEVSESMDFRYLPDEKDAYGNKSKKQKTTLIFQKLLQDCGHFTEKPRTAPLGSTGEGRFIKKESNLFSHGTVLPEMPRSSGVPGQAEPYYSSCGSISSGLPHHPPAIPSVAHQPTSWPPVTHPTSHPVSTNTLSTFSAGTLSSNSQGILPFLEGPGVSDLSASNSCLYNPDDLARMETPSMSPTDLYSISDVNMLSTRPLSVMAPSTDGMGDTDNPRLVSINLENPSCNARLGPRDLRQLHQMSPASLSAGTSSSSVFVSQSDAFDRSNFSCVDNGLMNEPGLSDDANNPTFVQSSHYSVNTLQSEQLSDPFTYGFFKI
Method: Total cells suspensions were then activated with 5 μg/mL plate-coated anti-mCD3, 1 μg/ml soluble anti-mCD28 (BioLegend) and 10 ng/mL mIL-2, overnight at 37 C. Treg cells were then washed for further use.
Total lysates were extracted using RIPA buffer and protease inhibitors with SDS. 20 μg (micrograms) protein extracts were ran in polyacrylamide gels and transferred onto PVDF membranes. Membranes were incubated with anti-p65, c-Rel (Santa-Cruz) and GAPDH (Fitzgerald) Abs, followed HRP-coupled secondary Abs.

p65 [2] = test: Western blot on PTXF-treated Treg cells; assay type: cell-based, mice; conditions: Treg cells stimulated with anti-CD3/CD28 and mIL-2, 500 μg/mL PTXF
Method: Total cells suspensions were then activated with 5 μg/mL plate-coated anti-mCD3, 1 μg/ml soluble anti-mCD28 (BioLegend) and 10 ng/mL mIL-2, overnight at 37 C. Treg cells were then washed for further use. Total lysates were extracted using RIPA buffer and protease inhibitors with SDS. 20 μg (micrograms) protein extracts were ran in polyacrylamide gels and transferred onto PVDF membranes. Membranes were incubated with anti-p65, c-Rel (Santa-Cruz) and GAPDH (Fitzgerald) Abs, followed HRP-coupled secondary Abs.

Treg cells [3] = test: Flow cytometry of PTXF-treated Treg cells; assay type: cell-based, mice; conditions: 16 h stimulation, 500 μg/mL PTXF
Method: Cells were isolated from thymus, spleen and lymph nodes by mechanical desegregation in PBS+ FBS 3%. For tumor-infiltrating cell suspensions, total tumors were digested in DMEM (Gibco) supplemented with 1 mg/ml collagenase type IV (Sigma) and 1 mg/ml DNase I (Sigma) for 40 minutes at 37° C., followed by centrifugation in a 36% Percoll solution. For intracellular cytokines analyses, cell suspensions were incubated 3 hours with PMA (Sigma, 50 ng/mL), ionoymycin (Sigma, 1 μg/mL) in the presence of Golgi Plug (BD), or incubated 4 hours with mitomycin C-treated WT splenocytes loaded with […] gp100/pmel 17 peptide (Neo Biolab) in the presence of Golgi Plug. Cells were then stained with mAbs purchased by eBioscience or Tonbo Bioscience. Foxp3 and cytokine staining were performed using the eBioscience kit and protocol. Cells were acquired on a LSR II (BD Biosciences) and analyzed with FlowJo (Tree Star) software. […] Total cells suspensions were then activated with 5 μg/mL plate-coated anti-mCD3, 1 μg/ml soluble anti-mCD28 (BioLegend) and 10 ng/mL mIL-2, overnight at 37 C. Treg cells were then washed for further use.

Treg cells [4] = test: In vivo suppression (colitis) assay with PTXF-treated Treg cells; parameters: species or system RAG1−/− mice; conditions: Treg transferred with naïve Tconv cells
Method: Total cells suspensions were then activated with 5 μg/mL plate-coated anti-mCD3, 1 μg/ml soluble anti-mCD28 (BioLegend) and 10 ng/mL mIL-2, overnight at 37 C. Treg cells were then washed for further use. For in vitro assays, CD45.1^+ naïve conventional CD4+ T cells were magnetically isolated (Miltenyi) and labelled with CellTrace Violet Proliferation Tracker (Life Technologies). They were cultured with T-cell depleted, mitomycin C-treated WT splenocytes and 2.5 μg/mL anti-mCD3, in the presence or not of treated Treg cells as described above. Proliferation of CD45.1^+ T cells was assessed by FACS at D4. The % of suppression was calculated as described. For in vivo assays, 4.10^5 naïve Tconv cells were isolated as above and transferred with or without 1.10^5 Treg cells, to the retro-orbital sinus of 6-9 week-old RAG1^−/− mice. Recipients were then weighed every week and euthanized when weight loss was >30%.

B16F1 cells = test: B16F1 tumor growth in immunodeficient mice; assay type: in vivo, RAG1−/− mice; conditions: PTXF vs PBS
Method: 5×10^4 B16F1 or 5×10^5 CT-26 or BRAF^[…]^-/- cells diluted in sterile PBS1X were injected subcutaneously into the shaved flank of each mouse. For metastasis experiments, 2.5×10^4 B16F10 cells were injected intravenously in the tail vein. […] Anti-PD-1 (RMP1-14), anti-PD-L1 (10F.9G2) and anti-CD8 (YTS.169-4) mAbs were obtained from BioXCell. Rat IgG isotype control was from R&D Systems.

c-Rel [5] = biological target: T2, c-Rel (Homo sapiens, UniProt Q04864); conditions: cited from earlier work
T2 construct: host or cells: T cells
T2 sequence (Q04864 1-619): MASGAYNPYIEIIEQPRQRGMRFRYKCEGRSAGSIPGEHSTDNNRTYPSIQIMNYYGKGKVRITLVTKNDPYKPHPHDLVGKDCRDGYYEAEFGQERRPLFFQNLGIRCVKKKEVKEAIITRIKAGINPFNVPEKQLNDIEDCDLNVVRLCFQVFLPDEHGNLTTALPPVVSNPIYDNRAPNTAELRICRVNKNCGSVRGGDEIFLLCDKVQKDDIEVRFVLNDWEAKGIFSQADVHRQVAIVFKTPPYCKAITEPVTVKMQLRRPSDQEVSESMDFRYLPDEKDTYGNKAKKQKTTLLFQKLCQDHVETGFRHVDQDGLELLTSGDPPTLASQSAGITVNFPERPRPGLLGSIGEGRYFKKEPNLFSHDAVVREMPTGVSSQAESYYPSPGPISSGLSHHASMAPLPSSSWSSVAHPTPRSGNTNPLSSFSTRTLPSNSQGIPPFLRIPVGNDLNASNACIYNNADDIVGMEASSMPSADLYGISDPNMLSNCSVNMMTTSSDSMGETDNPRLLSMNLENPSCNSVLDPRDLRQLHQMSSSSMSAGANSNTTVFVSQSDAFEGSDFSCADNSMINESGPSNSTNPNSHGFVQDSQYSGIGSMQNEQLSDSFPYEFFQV

p65 [6] = conditions: cited from earlier work

CC(=O)CCCCn1c(=O)c2c(ncn2C)n(C)c1=O [PTXF, 1-(5-oxohexyl)-3,7-dimethylxanthine]
c-Rel protein (c-Rel [1]): significant reduction of c-Rel protein
levels of p65 (p65 [2]): unchanged
expression of Treg markers such as Foxp3, CD25 and Helios (Treg cells [3]): significantly decreased expression
prevention of colitis by PTXF-treated Treg (Treg cells [4]): completely failed to prevent colitis
tumor growth in immunodeficient background (B16F1 cells): no effect on tumor growth
levels of c-Rel activation in T cells in vitro (c-Rel [5]): reduces the levels of c-Rel activation
levels of p65 in T cells in vitro (p65 [6]): unchanged
